Measured values from US11878970B2, “Allosteric chromenone inhibitors of phosphoinositide 3-kinase (PI3K) for the treatment of disease” (Petra Pharma Corporation, priority 2021, dated 2024).

Assays:
[1] = target: T1, PI3K-α (PIK3CA) H1047R mutant, p110α/p85α complex (Homo sapiens, UniProt P42336, H1047R); assay: PI3K-alpha kinase (PIK3CA) biochemical activity, ADP-Glo, H1047R mutant; details: Soy PI lipid substrate
T1 construct: Recombinant, catalytically active human full length PIK3KA Wild-type and H1047R mutant; 6×His (N); purchased EMD Millipore Sigma 14-792M
How it was run: (§1)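 ADP formation measured by ADP-Glo luminescence after reaction at 27 °C to about 10% ATP turnover, using 20 uM ATP, 50 uM PIP2diC8 or soy PI lipid, HEPES pH 7.4 with MgCl2. Enzyme (1-5 nM WT or H1047R p110α/p85α) and compound preincubated 1 h first; 10-point 1:3 curves fitted four-parameter for IC50.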

[2] = target: T2, PI3K-α (PIK3CA) wild-type (WT), p110α/p85α complex (Homo sapiens, UniProt P42336); assay: PI3K-alpha kinase (PIK3CA) biochemical activity, ADP-Glo, wild-type; details: Soy PI lipid substrate
T2 construct: Recombinant, catalytically active human full length PIK3KA Wild-type and H1047R mutant; 6×His (N); purchased EMD Millipore Sigma 14-602M
How it was run: as §1

[3] = target: PI3K-α (PIK3CA) in MDA-MB-453 cells (Homo sapiens, UniProt P42336); assay: PI3K-alpha kinase (PIK3CA) in vitro cell based assay, MDA-MB-453 cells, SureFire Ultra AlphaLisa; details: read-out: PI3K-α (PIK3CA) in vitro cell based assay IC50
How it was run: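 Cells treated 3 h in serum-free MEM with 1 μg/mL insulin, 10-point 1:3 series in 0.3% DMSO, then lysed for SureFire Ultra AlphaLisa read-out. Inhibition normalized to DMSO (max) and 1 μM GDC-0032 (min); duplicate averages fitted by 4-parameter logistic for relative IC50.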

Sequence of PI3K-α (PIK3CA) in MDA-MB-453 cells (P27986 2-724): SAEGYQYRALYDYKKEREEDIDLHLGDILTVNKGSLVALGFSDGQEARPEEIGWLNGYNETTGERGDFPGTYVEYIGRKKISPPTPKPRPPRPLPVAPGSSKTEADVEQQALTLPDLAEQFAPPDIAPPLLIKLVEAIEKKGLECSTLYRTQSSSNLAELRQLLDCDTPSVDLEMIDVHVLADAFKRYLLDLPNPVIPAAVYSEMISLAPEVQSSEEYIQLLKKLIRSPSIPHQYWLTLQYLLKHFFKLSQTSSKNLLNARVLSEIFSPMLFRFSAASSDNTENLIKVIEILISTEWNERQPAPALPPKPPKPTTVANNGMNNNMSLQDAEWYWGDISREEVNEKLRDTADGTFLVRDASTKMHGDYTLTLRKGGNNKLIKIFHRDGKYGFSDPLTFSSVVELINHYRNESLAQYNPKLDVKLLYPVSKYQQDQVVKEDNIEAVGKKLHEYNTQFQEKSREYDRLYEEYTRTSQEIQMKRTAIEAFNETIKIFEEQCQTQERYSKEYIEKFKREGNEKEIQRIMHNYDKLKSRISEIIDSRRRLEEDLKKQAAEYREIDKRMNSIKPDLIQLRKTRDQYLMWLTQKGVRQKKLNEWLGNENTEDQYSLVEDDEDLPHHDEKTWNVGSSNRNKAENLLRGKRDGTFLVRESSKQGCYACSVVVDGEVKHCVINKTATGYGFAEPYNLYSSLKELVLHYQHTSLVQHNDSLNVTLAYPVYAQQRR
Sequence of PI3K-α (PIK3CA) in MDA-MB-453 cells (P42336 whole entry): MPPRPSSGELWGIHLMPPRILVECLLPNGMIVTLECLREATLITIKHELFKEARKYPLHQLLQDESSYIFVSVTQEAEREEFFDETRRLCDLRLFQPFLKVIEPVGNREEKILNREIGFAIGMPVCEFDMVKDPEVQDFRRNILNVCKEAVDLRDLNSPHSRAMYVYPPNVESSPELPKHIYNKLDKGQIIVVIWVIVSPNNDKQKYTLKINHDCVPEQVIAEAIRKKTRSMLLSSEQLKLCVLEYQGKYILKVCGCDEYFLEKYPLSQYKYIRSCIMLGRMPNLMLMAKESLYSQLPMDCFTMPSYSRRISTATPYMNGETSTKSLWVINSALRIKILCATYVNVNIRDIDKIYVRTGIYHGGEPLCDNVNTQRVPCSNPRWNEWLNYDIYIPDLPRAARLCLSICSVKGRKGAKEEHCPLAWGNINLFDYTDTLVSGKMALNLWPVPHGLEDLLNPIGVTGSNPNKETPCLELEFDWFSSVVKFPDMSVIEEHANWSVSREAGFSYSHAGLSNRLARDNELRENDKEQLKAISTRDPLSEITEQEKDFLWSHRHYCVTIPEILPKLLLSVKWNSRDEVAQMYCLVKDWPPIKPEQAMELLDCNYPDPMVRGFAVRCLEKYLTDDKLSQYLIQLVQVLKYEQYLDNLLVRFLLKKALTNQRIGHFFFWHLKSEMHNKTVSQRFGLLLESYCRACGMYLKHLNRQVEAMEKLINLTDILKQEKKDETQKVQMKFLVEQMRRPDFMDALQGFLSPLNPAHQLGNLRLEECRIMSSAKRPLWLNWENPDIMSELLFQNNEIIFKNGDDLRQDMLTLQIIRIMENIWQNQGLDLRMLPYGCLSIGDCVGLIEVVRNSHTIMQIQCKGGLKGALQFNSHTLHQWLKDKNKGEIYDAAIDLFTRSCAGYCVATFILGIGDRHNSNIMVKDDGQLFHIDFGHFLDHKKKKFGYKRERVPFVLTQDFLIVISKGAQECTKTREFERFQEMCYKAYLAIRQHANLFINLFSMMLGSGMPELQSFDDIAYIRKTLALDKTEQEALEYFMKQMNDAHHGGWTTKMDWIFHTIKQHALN
T1 sequence (P42336 whole entry H1047R): as the sequence (P42336 whole entry) above, with H1047R counted along it
T1 sequence (P27986 whole entry partner): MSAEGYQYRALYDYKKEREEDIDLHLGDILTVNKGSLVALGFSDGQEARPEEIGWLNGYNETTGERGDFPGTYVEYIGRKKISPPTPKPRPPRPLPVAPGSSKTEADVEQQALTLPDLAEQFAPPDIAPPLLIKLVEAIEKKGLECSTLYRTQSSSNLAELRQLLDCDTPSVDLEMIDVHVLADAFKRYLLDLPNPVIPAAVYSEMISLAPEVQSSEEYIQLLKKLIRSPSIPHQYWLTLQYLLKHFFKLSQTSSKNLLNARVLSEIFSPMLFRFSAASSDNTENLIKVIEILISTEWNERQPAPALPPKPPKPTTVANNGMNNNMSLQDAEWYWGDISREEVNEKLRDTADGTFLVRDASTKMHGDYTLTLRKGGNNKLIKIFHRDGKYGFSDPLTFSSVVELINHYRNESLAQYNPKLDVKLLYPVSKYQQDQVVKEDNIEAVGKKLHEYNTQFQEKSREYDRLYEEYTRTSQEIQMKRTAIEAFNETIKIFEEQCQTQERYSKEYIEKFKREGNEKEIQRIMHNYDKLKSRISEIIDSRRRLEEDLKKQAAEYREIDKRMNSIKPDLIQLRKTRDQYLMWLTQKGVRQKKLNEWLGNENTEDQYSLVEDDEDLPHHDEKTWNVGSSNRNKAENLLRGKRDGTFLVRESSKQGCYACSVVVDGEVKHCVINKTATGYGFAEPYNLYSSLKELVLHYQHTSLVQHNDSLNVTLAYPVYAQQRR

| SMILES | IC50 [1] | IC50 [2] | IC50 [3] |
| --- | --- | --- | --- |
| Cc1cc([C@@H](C)Nc2ccc(C)nc2C(=O)O)c2oc(-c3ccc4nc(C)sc4n3)cc(=O)c2c1 [Example 250, 6-Methyl-3-[[(1R)-1-[6-methyl-2-(2-methylthiazolo[5,4-b]pyridin-5-yl)-4-oxo-chromen-8-yl]ethyl]amino]pyridine-2-carboxylic acid] | 1000 to 5000 nM | 5000 to 10000 nM | 100 to 500 nM |
| Cc1cc(C(C)Nc2ccccc2C(=O)O)c2oc(-c3ccc4c(c3)OC(F)(F)O4)cc(=O)c2c1 (single isomer, unassigned) [Example 64, 2-[1-[2-(2,2-Difluoro-1,3-benzodioxol-5-yl)-6-methyl-4-oxo-chromen-8-yl]ethylamino]benzoic acid] | < 500 nM | 1000 to 5000 nM | < 50 nM |
| Cc1cc(C(C)Nc2ccccc2C(=O)O)c2oc(-c3cc(Cl)c4nn(C)cc4c3)cc(=O)c2c1 (single isomer, unassigned) [Example 95, 2-[1-[2-(7-Chloro-2-methyl-indazol-5-yl)-6-methyl-4-oxo-chromen-8-yl]ethylamino]benzoic acid] | < 500 nM | 500 to 1000 nM | < 50 nM |
| Cc1cc([C@@H](C)Nc2ccccc2C(=O)O)c2oc(-c3cc(C(F)(F)F)c4nn(C)cc4c3)cc(=O)c2c1 [Example 198, 2-[[(1R)-1-[6-Methyl-2-[2-methyl-7-(trifluoromethyl)indazol-5-yl]-4-oxo-chromen-8-yl]ethyl]amino]benzoic acid] | < 500 nM | < 500 nM | 50 to 100 nM |
| Cc1cc([C@@H](C)Nc2ccc(Cl)nc2C(=O)O)c2oc(-c3nc4ccccc4o3)c(C)c(=O)c2c1 [Example 263, 3-[[(1R)-1-[2-(1,3-benzoxazol-2-yl)-3,6-dimethyl-4-oxo-chromen-8-yl]ethyl]amino]-6-chloro-pyridine-2-carboxylic acid; 2,2,2-trifluoroacetic acid] | < 500 nM | 1000 to 5000 nM | < 50 nM |
| Cc1cc(C(C)Nc2ccccc2C(=O)O)c2oc(-c3ccc4cn[nH]c4c3)cc(=O)c2c1 (single isomer, unassigned) [Example 63, 2-[1-[2-(1H-Indazol-6-yl)-6-methyl-4-oxo-chromen-8-yl]ethylamino]benzoic acid] | < 500 nM | 500 to 1000 nM | < 50 nM |
| Cc1cc(C(C)Nc2ccccc2C(=O)O)c2oc(-c3ccc4nn(C)cc4c3)c(C)c(=O)c2c1 (single isomer, unassigned) [Example 91, 2-[1-[3,6-Dimethyl-2-(2-methylindazol-5-yl)-4-oxo-chromen-8-yl]ethylamino]benzoic acid] | < 500 nM | 500 to 1000 nM | < 50 nM |
| Cc1cc([C@@H](C)Nc2cccc(F)c2C(=O)O)c2oc(-c3cc4cnccc4o3)c(C)c(=O)c2c1 [Example 264, 2-Fluoro-6-[[(1R)-1-(2-furo[3,2-c]pyridin-2-yl-3,6-dimethyl-4-oxo-chromen-8-yl)ethyl]amino]benzoic acid; 2,2,2-trifluoroacetic acid] | < 500 nM | < 500 nM | < 50 nM |
| Cc1cc(C(C)Nc2cccc(F)c2C(=O)O)c2oc(-c3ccc4cnn(C)c4c3)cc(=O)c2c1 (single isomer, unassigned) [Example 221, 2-fluoro-6-[1-[6-methyl-2-(1-methylindazol-6-yl)-4-oxo-chromen-8-yl]ethylamino]benzoic acid] | 1000 to 5000 nM | 500 to 1000 nM | > 500 nM |
| Cc1cc([C@@H](C)Nc2ccccc2C(=O)O)c2oc(-c3ccc4nc(C)oc4n3)c(C)c(=O)c2c1 [Example 256, 2-[[(1R)-1-[3,6-Dimethyl-2-(2-methyloxazolo[5,4-b]pyridin-5-yl)-4-oxo-chromen-8-yl]ethyl]amino]benzoic acid] | < 500 nM | 500 to 1000 nM | < 50 nM |
| CC(Nc1ccccc1C(=O)O)c1cc(F)cc2c(=O)cc(-c3cc4ccccc4[nH]3)oc12 (single isomer, unassigned) [Example 128, 2-[1-[6-Fluoro-2-(1H-indol-2-yl)-4-oxo-chromen-8-yl]ethylamino]benzoic acid] | < 500 nM | 500 to 1000 nM | < 50 nM |
